Measurements from patent US8293726B2, “Treatment of cancer and other diseases” (Vianova Labs, Inc., priority 2005, dated 2012).

Columns and labels:
uterine cancer stage IIB = test: Patient case: recurrent uterine cancer; type: in vivo, human; conditions: 60 mg/day, within three months; recurrent 3.2 cm pelvic mass before
From the text: A patient presented with uterine cancer stage IIB. They previously received cisplatin-based chemotherapy and radiotherapy. […] A cervical biopsy confirms the recurrence. […] Within three months, the tumor had disappeared on clinical exam and abdomino-pelvic CT scan.

[1] = tested on: left squamous-cell carcinoma of the lung; test: Patient case: squamous-cell carcinoma of the lung; type: in vivo, human
From the text: A patient with presented with a left squamous-cell carcinoma of the lung. […] Seven months later the patient received radiotherapy to the left lung. […] The patient undergoes a left pneumonectomy and drug therapy is stopped, but the tumor recurs and the patient dies.

experimental lymphoma = test: Histological analysis of liver and kidneys of mice with experimental lymphoma; type: in vivo; conditions: mouse with experimental lymphoma, orally daily 250 mg/kg
Method: FIGS. 11 and 12 are photomicrographs (450× and 900×, respectively) of part of the liver taken from a mouse with experimental lymphoma orally administered 24-ethyl-cholestane-3β,5α,6α-triol daily at a dosage of 250 mg/kg. Lymphocytic proliferation is insignificant.
Parenchymatous organs liver and kidneys received from mice with experimental lymphoma on the 15th day of observation and from mice treated with 24-ethyl-cholestane-3β,5α,6α-triol were taken for the histological analysis. Micropreparations were stained with hematoxilin eosin and examined by microscopy (FIGS. 9, 10, 11, and 12).

CC[C@H](CC[C@@H](C)[C@H]1CC[C@H]2[C@@H]3C[C@H](O)[C@@]4(O)C[C@@H](O)CC[C@]4(C)[C@H]3CC[C@]12C)C(C)C [24-ethyl-cholestane-3β,5α,6α-triol]
tumor on clinical exam and abdomino-pelvic CT scan (uterine cancer stage IIB): disappeared
general condition ([1]; 50 mg/day, after commencing therapy): drastic and rapid improvement
fibroscopy ([1]; fourteen months after therapy commenced): normal
late outcome ([1]; nearly five years after commencement of therapy): recurrence of the left lung tumor
left lung opacity ([1]; nine months after commencing treatment, radiotherapy to the left lung at seven months): significant regression
lymphocytic proliferation in liver (photomicrographs) (experimental lymphoma): insignificant
